{"source": "paper PMC11079878", "about": "(ACS Omega, 2024)", "key": {"[1]": {"test_system": "Lolium multiflorum (Ray grass)", "details": "previously reported cyclotetrapeptides; cited from earlier work"}, "[2]": {"test_system": "Microcystis aeruginosa strain (MVCC42)", "assay": "Cyanobacteria growth inhibition", "details": "colistin 30 μg/mL, positive control; duplicates, 7–10 days"}, "[3]": {"test_system": "microcystins in Microcystis (MVCC42) cultures", "type": "cell-based, Microcystis aeruginosa"}, "[4]": {"test_system": "Lolium multiflorum (Ray grass)", "assay": "Herbicidal activity, germination in agar methodology", "type": "in vivo", "details": "67 μg/mL in agar; Ryegrass, 12 days; three replicates; Figure S48"}, "[5]": {"details": "qualitative; cited from earlier work"}, "HepG2 cells": {"test_system": "HepG2 cells", "details": "qualitative; cited from earlier work"}}, "note": "[ ]: non-standard residue; d: D form. NMeF = CN[C@@H](Cc1ccccc1)C(=O)O; NMeA = CN[C@@H](C)C(=O)O", "data": [{"compound": "cyclo(AL[dF]G) [compound 16]", "values": [{"measurement": "radicle growth inhibition (reported activity)", "setting": "[1]", "value": 41, "unit": "%"}]}, {"compound": "CCc1cccc(C)c1N(C(=O)CCl)[C@@H](C)COC", "note": "[Positive control, S-metolachlor]", "values": [{"measurement": "reduction of chlorophyll a (%)", "setting": "[2]", "value": 99, "unit": "%"}]}, {"compound": "colistine", "values": [{"measurement": "inhibition of microcystins concentration (%)", "setting": "[3]", "value": 90, "unit": "%"}]}, {"compound": "cyclo([NMeA]L[NMeF]G) [compound 24]", "values": [{"measurement": "radicle growth inhibition (reported activity)", "setting": "[1]", "value": 81, "unit": "%"}]}, {"compound": "NH-MeAla-Leu-D-Phe-β-Ala-OH [compound 29]", "values": [{"measurement": "leaf development (%)", "setting": "[4]", "value": "not active"}]}, {"compound": "cyclo(NMe-Ala-Leu-NMe-Δ^z-Phe-Gly) (head to tail) [Tentoxin]", "values": [{"measurement": "phytotoxic effect on seedlings", "setting": "[5]", "value": "causes seedling chlorosis"}]}, {"compound": "cyclo([NMeA]LFG) [compound 17]", "values": [{"measurement": "radicle growth inhibition (reported activity)", "setting": "[1]", "value": 71, "unit": "%"}]}, {"compound": "versicotide D", "values": [{"measurement": "cytotoxicity on HepG2 cells", "setting": "HepG2 cells", "value": "low cytotoxicity"}, {"measurement": "phytotoxicity", "setting": "[5]", "value": "high phytotoxicity"}]}]}
